Some test systems named below: A498 renal; A549 NSCLC; HOP-92 NSCLC; K-562 leukemia; RPMI-8226 leukemia; SNB-19 CNS; SW-620 colon; T-47D breast; M14 melanoma; OVCAR-3 ovarian.
Holding throughout (assay): NCI tumour cell line growth inhibition, 48 h

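Five concentrations, 48 hours, 96-well plates. TGI: concentration producing complete growth inhibition.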 Where a SMILES comes first, the peptide text is derived from it. The star is where a group is joined. Cbz = O=C(OCc1ccccc1)*

In the case of `N#Cc1c(N)n(-c2cccc(C(=O)O)c2)c(=O)c2cc([N+](=O)[O-])ccc12`, the TGI in the experiment with A498 renal, in the experiment with A549 NSCLC, in the experiment with HOP-92 NSCLC, with K-562 leukemia, with RPMI-8226 leukemia and in the experiment on SNB-19 CNS was more than 100 µM each time. Besides, the TGI in the experiment with SW-620 colon and with T-47D breast was more than 100 µM throughout.

In the case of `COc1ccc(C(OCC2OC(n3cc(C)c(=O)[nH]c3=O)CC2n2cc(Cn3cc(Cl)c(=O)[nH]c3=O)nn2)(c2ccccc2)c2ccccc2)cc1` (centres undefined), the TGI with A498 renal, in the experiment with A549 NSCLC, in the experiment on HOP-92 NSCLC, with M14 melanoma, in the experiment on OVCAR-3 ovarian and in the experiment on RPMI-8226 leukemia was more than 100 µM in each case. Moreover, the TGI with SNB-19 CNS, with SW-620 colon and in the experiment on T-47D breast was more than 100 µM each time.

Consider `O=C(O)CCC(NC(=O)OCc1ccccc1)C(=O)NC(Cc1cnc[nH]1)C(=O)O` (stereo not drawn) (Cbz-Glu-His-OH; configuration not given here), for which the TGI in the experiment with A498 renal, in the experiment on A549 NSCLC, with HOP-92 NSCLC, with K-562 leukemia, in the experiment with M14 melanoma and in the experiment on OVCAR-3 ovarian was more than 100 µM each time. The TGI with RPMI-8226 leukemia, in the experiment on SNB-19 CNS, with SW-620 colon and with T-47D breast was more than 100 µM each time.

Consider `N#CCCN(C(=O)Nc1ccccc1)[C@H]1CCCC[C@@H]1N(C(=O)Nc1ccccc1)c1ccccc1`, for which the TGI with A549 NSCLC, in the experiment on HOP-92 NSCLC, in the experiment with K-562 leukemia, in the experiment with M14 melanoma, with OVCAR-3 ovarian and in the experiment with RPMI-8226 leukemia was more than 100 µM throughout. For the same compound, the TGI with SNB-19 CNS, with SW-620 colon and with T-47D breast was more than 100 µM throughout.

As for `CN=C(N=Nc1c(O)[nH]c2ccccc12)SCC(=O)c1ccc(Br)cc1`, the TGI is 37.2 µM in the experiment on A498 renal; 20 µM in the experiment with A549 NSCLC; more than 52.4 µM with HOP-92 NSCLC; more than 100 µM in the experiment with K-562 leukemia; 39.3 µM in the experiment on M14 melanoma; 28.2 µM in the experiment on OVCAR-3 ovarian. Besides, the TGI is more than 100 µM in the experiment with RPMI-8226 leukemia, more than 100 µM in the experiment with SNB-19 CNS, more than 34.1 µM in the experiment on SW-620 colon and more than 100 µM in the experiment on T-47D breast.

Take `O=C1CCCC1CN1CCCC1` (centres undefined): the TGI in the experiment with A498 renal is 45.1 µM; with A549 NSCLC it was more than 100 µM; in the experiment on HOP-92 NSCLC, 12.6 µM; in the experiment on K-562 leukemia, 1.18 µM; in the experiment on M14 melanoma it was 6.74 µM; in the experiment on OVCAR-3 ovarian it was 28.9 µM. For the same compound, the TGI in the experiment on RPMI-8226 leukemia was 6.8 µM; with SNB-19 CNS, more than 100 µM; in the experiment with SW-620 colon it was 11.3 µM; in the experiment on T-47D breast, 10.8 µM.

As to `CCCCCCOC(=O)/C=C/[C@]1(CO)C/C(=C/CC(C(C)C)C(C)C)C(=O)O1`, the TGI in the experiment with A498 renal came out at 20.6 µM; in the experiment with A549 NSCLC it was 18.4 µM; in the experiment on HOP-92 NSCLC it was 25.4 µM; in the experiment with K-562 leukemia, 31.2 µM; with M14 melanoma, 25.1 µM; with OVCAR-3 ovarian, 29.8 µM. Moreover, the TGI in the experiment with RPMI-8226 leukemia came to 56.1 µM; in the experiment with SNB-19 CNS, 22.6 µM; in the experiment on SW-620 colon, 27.7 µM; with T-47D breast, 37.5 µM.

Turning to `CC(CO)(CO)N1C(=O)C2C3C=CC(C3)C2C1=O` (centres undefined), the TGI in the experiment on A498 renal, in the experiment with A549 NSCLC, with HOP-92 NSCLC, in the experiment on K-562 leukemia, in the experiment with M14 melanoma and in the experiment on OVCAR-3 ovarian was more than 100 µM in each case. In addition, the TGI in the experiment on RPMI-8226 leukemia, in the experiment with SNB-19 CNS, in the experiment with SW-620 colon and in the experiment with T-47D breast was more than 100 µM throughout.

As for `Cc1nc2c(nc1C)-c1[nH]c3c(c1C(=O)C2=O)CCCC3=O`, the TGI with A498 renal turned out to be 21.5 µM; with A549 NSCLC, 16.3 µM; in the experiment with HOP-92 NSCLC, 3.66 µM; in the experiment on K-562 leukemia, 5.59 µM; in the experiment with M14 melanoma, 3.4 µM; in the experiment on OVCAR-3 ovarian it was 2.07 µM. Also, the TGI with RPMI-8226 leukemia came out at 3.22 µM; with SNB-19 CNS, 5.58 µM; in the experiment on SW-620 colon it was 5.17 µM; with T-47D breast, 0.709 µM.

Regarding `CSc1ncnc2c1ncn2CCC(=O)OC(C)(C)C`, the TGI in the experiment with A498 renal, in the experiment on A549 NSCLC, in the experiment with HOP-92 NSCLC, in the experiment with K-562 leukemia, with M14 melanoma and in the experiment on OVCAR-3 ovarian was more than 100 µM throughout. Also, the TGI in the experiment with RPMI-8226 leukemia, in the experiment with SNB-19 CNS, in the experiment with SW-620 colon and in the experiment on T-47D breast was more than 100 µM throughout.

In the case of `COC(=O)c1cc2ccc(N)nc2[nH]c1=O`, the TGI in the experiment on A498 renal, in the experiment with A549 NSCLC, with HOP-92 NSCLC, in the experiment on M14 melanoma, with OVCAR-3 ovarian and in the experiment on RPMI-8226 leukemia was more than 100 µM in each case. Also, the TGI in the experiment on SNB-19 CNS, in the experiment on SW-620 colon and in the experiment on T-47D breast was more than 100 µM in each case.

In the case of `CCOC(=O)CC[C@H](NC(=O)[C@H](N)Cc1ccc(N(CCCl)CCCl)cc1)C(=O)OCC`, the TGI was more than 100 µM in the experiment on A498 renal; more than 100 µM in the experiment on A549 NSCLC; 18.3 µM in the experiment on HOP-92 NSCLC; more than 100 µM in the experiment on K-562 leukemia; 21.8 µM with M14 melanoma; 30.2 µM in the experiment on OVCAR-3 ovarian. For the same compound, the TGI with RPMI-8226 leukemia is more than 100 µM; in the experiment with SNB-19 CNS it was more than 96 µM; in the experiment with SW-620 colon, more than 58.8 µM; in the experiment with T-47D breast it was 38.6 µM.

Turning to `CC(=O)c1[nH]c(NCc2ccccc2)c(C(=S)Nc2ccccc2)c1N`, the TGI in the experiment with A498 renal worked out at 53.7 µM; in the experiment on A549 NSCLC it was 93.9 µM; in the experiment with HOP-92 NSCLC, 59.3 µM; in the experiment with K-562 leukemia it was 76.1 µM; with M14 melanoma, 33.7 µM; in the experiment on OVCAR-3 ovarian it was 97.9 µM. In addition, the TGI is more than 100 µM in the experiment with SNB-19 CNS, more than 100 µM in the experiment with SW-620 colon and 63.3 µM in the experiment on T-47D breast.

Turning to `S=C(S)NCNC(=S)S.[Zn+2]`, the TGI with A498 renal, with A549 NSCLC, in the experiment with HOP-92 NSCLC, in the experiment on K-562 leukemia, in the experiment on M14 melanoma and with OVCAR-3 ovarian was more than 100 µM throughout. The TGI in the experiment on RPMI-8226 leukemia, in the experiment with SNB-19 CNS, in the experiment with SW-620 colon and with T-47D breast was more than 100 µM throughout.

The values are drawn from PubChem BioAssay (NCI).
